The subject of the test is MV-4-11 cells. As to the kind of experiment: Gene expression microarray analysis (Affymetrix PrimeView) and GSEA. The test is classed as cell-based, human. Also noted: RFU PODN (11730768_x_at) / Fold change /veh PODN (11730768_x_at) / RFU LINC00158 (11744669_a_at) / Fold change /veh LINC00158 (11744669_a_at) / RFU DUSP10 (11751237_a_at) / Fold change /veh DUSP10 (11751237_a_at) / RFU ID3 (11757404_x_at) / Fold change /veh ID3 (11757404_x_at) / RFU PLEKHG5 (11737974_s_at) / Fold change /veh PLEKHG5 (11737974_s_at) / RFU LRRC4B (11730491_at) / Fold change /veh LRRC4B (11730491_at) / RFU GIMAP4 (11747438_a_at) / Fold change /veh GIMAP4 (11747438_a_at) / RFU KRT8 (11758183_x_at) / Fold change /veh KRT8 (11758183_x_at) / RFU CNN1 (11734310_a_at) / Fold change /veh CNN1 (11734310_a_at) / RFU VPS37D (11726825_at) / Fold change /veh VPS37D (11726825_at) / RFU C10orf10 (11716522_x_at) / Fold change /veh C10orf10 (11716522_x_at) / RFU KIR2DL2 /// KIR2DL4 /// KIR2DL5A /// KIR2DL5B /// KIR2DS1 /// KIR2DS2 /// KIR2DS3 /// KIR2DS4 /// KIR3DL3 /// KIR3DL3 /// KIR3DS1 (11738374_at) / Fold change /veh KIR2DL2 /// KIR2DL4 /// KIR2DL5A /// KIR2DL5B /// KIR2DS1 /// KIR2DS2 /// KIR2DS3 /// KIR2DS4 /// KIR3DL3 /// KIR3DL3 /// KIR3DS1 (11738374_at) / RFU C1QL1 (11718748_at) / Fold change /veh C1QL1 (11718748_at) / RFU TMPRSS4 (11747572_a_at) / Fold change /veh TMPRSS4 (11747572_a_at) / RFU HAMP (11756126_x_at) / Fold change /veh HAMP (11756126_x_at) / RFU RNFT2 (11725882_a_at) / Fold change /veh RNFT2 (11725882_a_at) / RFU NR4A2 (11747474_a_at) / Fold change /veh NR4A2 (11747474_a_at) / RFU ABCC12 (11746883_a_at) / Fold change /veh ABCC12 (11746883_a_at) / RFU TMEM136 (11760407_x_at) / Fold change /veh TMEM136 (11760407_x_at) / RFU CLDN22 /// WWC2 (11732394_at) / Fold change /veh CLDN22 /// WWC2 (11732394_at) / RFU HLA-DPB1 (11760878_x_at) / Fold change /veh HLA-DPB1 (11760878_x_at) / RFU SPINT1 (11716480_a_at) / Fold change /veh SPINT1 (11716480_a_at) / RFU GAP43 (11754022_s_at) / Fold change /veh GAP43 (11754022_s_at) / RFU A4GNT (11735810_at) / Fold change /veh A4GNT (11735810_at) / RFU PRB3 (11715151_x_at) / Fold change /veh PRB3 (11715151_x_at) / RFU TUBB4B (11761932_at) / Fold change /veh TUBB4B (11761932_at) / RFU CAPN14 (11732068_a_at) / Fold change /veh CAPN14 (11732068_a_at) / RFU TMCC2 (11721928_a_at) / Fold change /veh TMCC2 (11721928_a_at) / RFU IRGQ (11745062_a_at) / Fold change /veh IRGQ (11745062_a_at) / RFU FAM174B (11720279_a_at) / Fold change /veh FAM174B (11720279_a_at) / RFU TMPRSS4 (11748680_a_at) / Fold change /veh TMPRSS4 (11748680_a_at) / RFU FAM212B (11763350_a_at) / Fold change /veh FAM212B (11763350_a_at) / RFU PLEKHG5 (11743358_a_at) / Fold change /veh PLEKHG5 (11743358_a_at) / RFU ZSCAN30 (11745921_a_at) / Fold change /veh ZSCAN30 (11745921_a_at) / RFU CMKLR1 (11741424_a_at) / Fold change /veh CMKLR1 (11741424_a_at) / RFU LOC101060620 /// MAPK8IP1 (11723275_at) / Fold change /veh LOC101060620 /// MAPK8IP1 (11723275_at) / RFU SPTSSB (11747773_x_at) / Fold change /veh SPTSSB (11747773_x_at) / RFU PRSS12 (11739890_at) / Fold change /veh PRSS12 (11739890_at) / RFU BIN1 (11741810_x_at) / Fold change /veh BIN1 (11741810_x_at) / RFU WNT11 (11732464_a_at) / Fold change /veh WNT11 (11732464_a_at) / RFU C10orf10 (11716521_a_at) / Fold change /veh C10orf10 (11716521_a_at) / RFU C5orf56 (11738089_at) / Fold change /veh C5orf56 (11738089_at) / RFU CYB561 (11721691_x_at) / Fold change /veh CYB561 (11721691_x_at) / RFU ANKRD19P (11752326_a_at) / Fold change /veh ANKRD19P (11752326_a_at) / RFU OR2T12 /// OR2T33 /// OR2T8 (11738714_s_at) / Fold change /veh OR2T12 /// OR2T33 /// OR2T8 (11738714_s_at) / RFU VCAN (11748164_a_at) / Fold change /veh VCAN (11748164_a_at) / RFU JSRP1 (11732532_at) / Fold change /veh JSRP1 (11732532_at) / RFU KRTAP10-11 (11738290_x_at) / Fold change /veh KRTAP10-11 (11738290_x_at) / RFU MYO3A (11730013_a_at) / Fold change /veh MYO3A (11730013_a_at) / RFU EBF3 (11725865_a_at) / Fold change /veh EBF3 (11725865_a_at) / RFU CAMK2N1 (11719241_x_at) / Fold change /veh CAMK2N1 (11719241_x_at) / RFU C5orf56 (11738088_a_at) / Fold change /veh C5orf56 (11738088_a_at) / RFU OLFML3 (11715873_a_at) / Fold change /veh OLFML3 (11715873_a_at) / RFU LOC100653217 /// NTM (11731650_a_at) / Fold change /veh LOC100653217 /// NTM (11731650_a_at) / RFU MAPK11 (11762145_a_at) / Fold change /veh MAPK11 (11762145_a_at) / RFU FIZ1 (11724087_x_at) / Fold change /veh FIZ1 (11724087_x_at) / RFU OASL (11726364_x_at) / Fold change /veh OASL (11726364_x_at) / RFU SOX15 (11748057_x_at) / Fold change /veh SOX15 (11748057_x_at) / RFU CD79A (11719716_a_at) / Fold change /veh CD79A (11719716_a_at) / RFU HIST1H1D (11736915_at) / Fold change /veh HIST1H1D (11736915_at) / RFU CASKIN2 (11723855_a_at) / Fold change /veh CASKIN2 (11723855_a_at) / RFU LOC730098 (11760151_x_at) / Fold change /veh LOC730098 (11760151_x_at) / RFU OR4N2 (11742367_at) / Fold change /veh OR4N2 (11742367_at) / RFU PRRT2 (11749266_a_at) / Fold change /veh PRRT2 (11749266_a_at) / RFU SNX32 (11753110_a_at) / Fold change /veh SNX32 (11753110_a_at) / RFU CDHR5 (11726645_a_at) / Fold change /veh CDHR5 (11726645_a_at) / RFU RCAN1 (11760418_a_at) / Fold change /veh RCAN1 (11760418_a_at) / RFU FAM167A (11723789_a_at) / Fold change /veh FAM167A (11723789_a_at) / RFU FAM26E (11764081_at) / Fold change /veh FAM26E (11764081_at) / RFU ISYNA1 (11749810_s_at) / Fold change /veh ISYNA1 (11749810_s_at) / RFU ACY1 (11761880_at) / Fold change /veh ACY1 (11761880_at) / RFU 11764098_at / Fold change /veh 11764098_at / RFU SAMD14 (11745864_x_at) / Fold change /veh SAMD14 (11745864_x_at) / RFU NPB (11741838_a_at) / Fold change /veh NPB (11741838_a_at) / RFU TMPRSS6 (11731388_a_at) / Fold change /veh TMPRSS6 (11731388_a_at) / RFU KRTAP10-2 (11738614_at) / Fold change /veh KRTAP10-2 (11738614_at) / RFU ARHGAP8 /// PRR5-ARHGAP8 (11727945_x_at) / Fold change /veh ARHGAP8 /// PRR5-ARHGAP8 (11727945_x_at) / RFU KRTAP5-7 /// NADSYN1 (11734609_at) / Fold change /veh KRTAP5-7 /// NADSYN1 (11734609_at) / RFU RASL12 (11751679_a_at) / Fold change /veh RASL12 (11751679_a_at) / RFU CDKN2B (11736163_a_at) / Fold change /veh CDKN2B (11736163_a_at) / RFU PRF1 (11729649_at) / Fold change /veh PRF1 (11729649_at) / RFU, ZNF638 /// ZNF638-IT1 / Fold change vs veh, ZNF638 /// ZNF638-IT1 / RFU, PANK3 / Fold change vs veh, PANK3 / RFU, SH3YL1 / Fold change vs veh, SH3YL1 / RFU, ZEB2 / Fold change vs veh, ZEB2 / RFU, NRIP1 / Fold change vs veh, NRIP1 / RFU, PTTG1IP / Fold change vs veh, PTTG1IP / RFU, CAPN2 / Fold change vs veh, CAPN2 / RFU, MED14 / Fold change vs veh, MED14 / RFU, SNORA58 / Fold change vs veh, SNORA58 / RFU, C1orf63 / Fold change vs veh, C1orf63 / RFU, LRRFIP1 / Fold change vs veh, LRRFIP1 / RFU, NDUFAF7 / Fold change vs veh, NDUFAF7 / RFU, SLC12A2 / Fold change vs veh, SLC12A2 / RFU, IBTK / Fold change vs veh, IBTK / RFU, ESF1 / Fold change vs veh, ESF1 / Fold change vs veh, TMEM50B / RFU, TAOK1 / Fold change vs veh, TAOK1 / RFU, ACBD3 / Fold change vs veh, ACBD3 / RFU, TMA16 / Fold change vs veh, TMA16 / RFU, RWDD3 / Fold change vs veh, RWDD3 / RFU, BCAT1 / Fold change vs veh, BCAT1 / RFU, EDEM3 / Fold change vs veh, EDEM3 / RFU, TMEM33 / Fold change vs veh, TMEM33 / RFU, WDR75 / Fold change vs veh, WDR75 / RFU, AHCTF1 / Fold change vs veh, AHCTF1 / RFU, TFRC / Fold change vs veh, TFRC / RFU, ZDHHC17 / Fold change vs veh, ZDHHC17 / RFU, NOM1 / Fold change vs veh, NOM1 / RFU, ARL8B / Fold change vs veh, ARL8B / RFU, ZBTB11 / Fold change vs veh, ZBTB11 / RFU, TAMM41 / Fold change vs veh, TAMM41 / RFU, KIAA1704 /// LOC100996395 / Fold change vs veh, KIAA1704 /// LOC100996395 / RFU, ING1 / Fold change vs veh, ING1 / RFU, TRMT61B / Fold change vs veh, TRMT61B / RFU, FUBP3 / Fold change vs veh, FUBP3 / RFU, TP53 / Fold change vs veh, TP53 / RFU, TNKS2 / Fold change vs veh, TNKS2 / RFU, ZFP14 / Fold change vs veh, ZFP14 / RFU, ACTR2 / Fold change vs veh, ACTR2 / RFU, PPP3R1 / Fold change vs veh, PPP3R1 / RFU, PIK3R1 / Fold change vs veh, PIK3R1 / RFU, HNRNPA1 / Fold change vs veh, HNRNPA1 / RFU, RNF170 / Fold change vs veh, RNF170 / RFU, ZNF28 / Fold change vs veh, ZNF28 / RFU, RNGTT / Fold change vs veh, RNGTT / RFU, OGT / Fold change vs veh, OGT / RFU, BRD1 / Fold change vs veh, BRD1 / RFU, MARS / Fold change vs veh, MARS / RFU, ZNF655 / Fold change vs veh, ZNF655 / RFU, FAHD1 / Fold change vs veh, FAHD1 / RFU, BDP1 / Fold change vs veh, BDP1 / RFU, LRRCC1 / Fold change vs veh, LRRCC1 / RFU, ARID1A / Fold change vs veh, ARID1A / RFU, ZNF146 / Fold change vs veh, ZNF146 / RFU, ZNF330 / Fold change vs veh, ZNF330 / RFU, GPN3 / Fold change vs veh, GPN3 / RFU, C9orf123 / Fold change vs veh, C9orf123 / RFU, N4BP2L2 / Fold change vs veh, N4BP2L2 / RFU, ARFIP1 / Fold change vs veh, ARFIP1 / RFU, FAM179B / Fold change vs veh, FAM179B / RFU, BCL10 / Fold change vs veh, BCL10 / RFU, UHRF1BP1L / Fold change vs veh, UHRF1BP1L / RFU, BET1 / Fold change vs veh, BET1 / RFU, CNOT2 / Fold change vs veh, CNOT2 / RFU, ZNF268 / Fold change vs veh, ZNF268 / Fold change vs veh, ZNF507 / RFU, DGCR2 / Fold change vs veh, DGCR2 / RFU, WDSUB1 / Fold change vs veh, WDSUB1 / Fold change vs veh, HSP90B1 /// MIR3652 / RFU, ADSS / Fold change vs veh, ADSS / RFU, GK / Fold change vs veh, GK / RFU, ZNF148 / Fold change vs veh, ZNF148 / RFU, TAF9 / Fold change vs veh, TAF9 / RFU, SLC1A5 / Fold change vs veh, SLC1A5 / RFU, SLMO2 / Fold change vs veh, SLMO2 / RFU, ABCC4 / Fold change vs veh, ABCC4 / RFU, LOC101060439 /// RAP1B / Fold change vs veh, LOC101060439 /// RAP1B / RFU, RFX7 / Fold change vs veh, RFX7 / RFU, GTPBP10 / Fold change vs veh, GTPBP10 / RFU, CNEP1R1 / Fold change vs veh, CNEP1R1 / RFU, BIVM-ERCC5 /// ERCC5 / Fold change vs veh, BIVM-ERCC5 /// ERCC5 / RFU, ILF3 / Fold change vs veh, ILF3 / RFU 11762660_at / Fold change /veh 11762660_at / RFU VCAN (11757783_s_at) / Fold change /veh VCAN (11757783_s_at) / RFU DDX43 (11728927_at) / Fold change /veh DDX43 (11728927_at) / RFU KRT8 (11758188_x_at) / Fold change /veh KRT8 (11758188_x_at) / RFU NKD1 (11759106_at) / Fold change /veh NKD1 (11759106_at) / RFU SRD5A1 (11742802_a_at) / Fold change /veh SRD5A1 (11742802_a_at) / RFU TPSAB1 /// TPSB2 (11721975_s_at) / Fold change /veh TPSAB1 /// TPSB2 (11721975_s_at) / RFU GSTM3 (11746129_a_at) / Fold change /veh GSTM3 (11746129_a_at) / RFU IL23R (11737362_x_at) / Fold change /veh IL23R (11737362_x_at) / RFU TMEM51 (11727254_a_at) / Fold change /veh TMEM51 (11727254_a_at) / RFU PIWIL2 (11732686_x_at) / Fold change /veh PIWIL2 (11732686_x_at) / RFU ORM1 (11744905_x_at) / Fold change /veh ORM1 (11744905_x_at) / RFU CCDC152 (11743942_at) / Fold change /veh CCDC152 (11743942_at) / RFU ECM1 (11717891_a_at) / Fold change /veh ECM1 (11717891_a_at) / RFU IL23R (11748794_a_at) / Fold change /veh IL23R (11748794_a_at) / RFU TNFAIP8L3 (11732012_x_at) / Fold change /veh TNFAIP8L3 (11732012_x_at) / RFU MBOAT4 (11741988_at) / Fold change /veh MBOAT4 (11741988_at) / RFU 11764193_at / Fold change /veh 11764193_at / RFU TMEM53 (11763286_at) / Fold change /veh TMEM53 (11763286_at) / RFU MAGEB2 (11727129_at) / Fold change /veh MAGEB2 (11727129_at) / RFU TMEM200A (11744735_a_at) / Fold change /veh TMEM200A (11744735_a_at) / RFU CCDC152 (11751479_a_at) / Fold change /veh CCDC152 (11751479_a_at) / RFU FAM211A (11726209_a_at) / Fold change /veh FAM211A (11726209_a_at) / RFU RGS16 (11746705_a_at) / Fold change /veh RGS16 (11746705_a_at) / RFU VCAN (11755009_s_at) / Fold change /veh VCAN (11755009_s_at) / RFU RHOB (11743442_s_at) / Fold change /veh RHOB (11743442_s_at) / RFU RGS16 (11720943_a_at) / Fold change /veh RGS16 (11720943_a_at) / RFU RGS16 (11720944_at) / Fold change /veh RGS16 (11720944_at) / RFU, VPS4B / Fold change vs veh, VPS4B / RFU, CREB1 / Fold change vs veh, CREB1 / RFU, DNAJC13 / Fold change vs veh, DNAJC13 / RFU, GNAQ / Fold change vs veh, GNAQ / RFU, CDK5R1 / Fold change vs veh, CDK5R1 / RFU, ZRANB3 / Fold change vs veh, ZRANB3 / RFU, CUL4A / Fold change vs veh, CUL4A / RFU, CCNY / Fold change vs veh, CCNY / RFU, UFL1 / Fold change vs veh, UFL1 / RFU, COG3 / Fold change vs veh, COG3 / RFU, DIAPH2 / Fold change vs veh, DIAPH2 / RFU, SKA2 / Fold change vs veh, SKA2 / RFU, AFF3 / Fold change vs veh, AFF3 / RFU, LMF1 / Fold change vs veh, LMF1 / RFU, IPO11 / Fold change vs veh, IPO11 / RFU, DFFB / Fold change vs veh, DFFB / RFU, FOXP1 / Fold change vs veh, FOXP1 / RFU, CARD8 / Fold change vs veh, CARD8 / RFU, STRN3 / Fold change vs veh, STRN3 / RFU, ADK / Fold change vs veh, ADK / RFU, RASSF2 / Fold change vs veh, RASSF2 / RFU, WIPF1 / Fold change vs veh, WIPF1 / RFU, LARP1B / Fold change vs veh, LARP1B / RFU, RASA1 / Fold change vs veh, RASA1 / RFU, RB1 / Fold change vs veh, RB1 / RFU, PPFIA1 / Fold change vs veh, PPFIA1 / RFU, MAT2A / Fold change vs veh, MAT2A / RFU, CCT5 / Fold change vs veh, CCT5 / RFU, WDR92 / Fold change vs veh, WDR92 / RFU, CUX1 / Fold change vs veh, CUX1 / RFU, TTC7A / Fold change vs veh, TTC7A / RFU, TMEM135 / Fold change vs veh, TMEM135 / RFU, DEPTOR / Fold change vs veh, DEPTOR / RFU, CPM / Fold change vs veh, CPM / RFU, DNAJB6 / Fold change vs veh, DNAJB6 / RFU, CACNA2D3 / Fold change vs veh, CACNA2D3 / RFU, DTX4 / Fold change vs veh, DTX4 / RFU, TFCP2 / Fold change vs veh, TFCP2 / RFU, GMCL1 /// GMCL1P1 / Fold change vs veh, GMCL1 /// GMCL1P1 / RFU, AEBP2 / Fold change vs veh, AEBP2 / RFU, SNHG1 /// SNORD22 /// SNORD25 /// SNORD26 /// SNORD27 /// SNORD28 /// SNORD29 /// SNORD31 / Fold change vs veh, SNHG1 /// SNORD22 /// SNORD25 /// SNORD26 /// SNORD27 /// SNORD28 /// SNORD29 /// SNORD31 / Fold change (Aza/veh), C12orf56 (ProbeSet 11735607_a_at) / Fold change (ACY-1035/veh), C12orf56 (ProbeSet 11735607_a_at) / Fold change (Aza/veh), FGFR1OP (ProbeSet 11751329_s_at) / Fold change (ACY-1035/veh), FGFR1OP (ProbeSet 11751329_s_at) / Fold change (Aza/veh), VPS36 (ProbeSet 11739960_a_at) / Fold change (ACY-1035/veh), VPS36 (ProbeSet 11739960_a_at) / RFU SYPL1 (11715823_x_at) / Fold change /veh SYPL1 (11715823_x_at) / RFU IGFBP7 (11715501_s_at) / Fold change /veh IGFBP7 (11715501_s_at) / RFU REEP3 (11722064_at) / Fold change /veh REEP3 (11722064_at) / RFU IGLL1 (11728026_x_at) / Fold change /veh IGLL1 (11728026_x_at): dose or concentration left out as unconfirmed. The note with it: ProbeSet 11727641_at; LIST B.

The source of these data is paper PMC5218480 (PLoS ONE, 2017).

In the case of `Nc1ncn([C@@H]2O[C@H](CO)[C@@H](O)[C@H]2O)c(=O)n1` [azacitidine], the “Fold change vs veh, NOM1” value is listed as 1.06.
